≈ marks a conversion by molar mass, not a printed value. Read-outs that look alike come from different tables or passages of the source.
Columns and labels:
Assay type in all cases: cell-based
[1] = system: S. aureus (UAMS-1625 strain); assay: MIC by broth microdilution against S. aureus; conditions: Staphylococcus aureus, read-out: MIC S. aureus
[2] = system: A. baumannii (HUMC1 strain); assay: MIC by broth microdilution against A. baumannii in RPMI + 10% FCS; conditions: Acinetobacter baumannii, read-out: MIC A. baumannii
[3] = system: M. abscessus subsp. abscessus ATCC 19977; assay: MIC against M. abscessus in Middlebrook 7H9 + ADC; conditions: Mycobacteroides abscessus
M. kansasii (ATCC 12478) = assay: MIC against M. kansasii in CAMHB + ADC; conditions: Mycobacterium kansasii
M. xenopi (ATCC 19250) = assay: MIC against M. xenopi in CAMHB + ADC; conditions: Mycobacterium xenopi
M. avium (ATCC 25291) = assay: MIC against M. avium in CAMHB + ADC; conditions: Mycobacterium avium
[4] = ATCC19977, ATCC 19977, 7H9 + ADC, read-out: MIC M. abscessus
[5] = ATCC12478, ATCC 12478, CAMHB + ADC (5%), read-out: MIC M. kansasii
[6] = ATCC19250, ATCC 19250, CAMHB + ADC (5%), read-out: MIC M. xenopi
[7] = ATCC25291, ATCC 25291, CAMHB + ADC (5%), read-out: MIC M. avium
[8] = ATCC19977, read-out: MIC M. abscessus
[9] = ATCC12478, read-out: MIC M. kansasii
[10] = ATCC19250, read-out: MIC M. xenopi
[11] = ATCC25291, read-out: MIC M. avium

Row | SMILES | MIC [1] [µg/mL] | MIC ([2]; HUMC1 strain, RPMI + 10% FCS) [µg/mL] | MIC [3, 4] [µg/mL] | MIC (M. kansasii (ATCC 12478); [5]) [µg/mL] | MIC (M. xenopi (ATCC 19250); [6]) [µg/mL] | MIC (M. avium (ATCC 25291); [7]) [µg/mL] | MIC [2] [µg/mL] | MIC [3, 8] [µg/mL] | MIC (M. kansasii (ATCC 12478); [9]) [µg/mL] | MIC (M. xenopi (ATCC 19250); [10]) [µg/mL] | MIC (M. avium (ATCC 25291); [11]) [µg/mL]
1 | CO[C@H]1/C=C/O[C@@]2(C)Oc3c(C)c(O)c4c(c3C2=O)C2=NC3(CCN(CC(C)C)CC3)NC2=C(NC(=O)/C(C)=C\C=C\[C@H](C)[C@H](O)[C@@H](C)[C@@H](O)[C@@H](C)[C@H](OC(=O)CC(=O)N2CCN(c3ccccc3)CC2)[C@@H]1C)C4=O [Compound 11] | 0.25 (≈ 0.241 µM) | 0.016 | 0.125 | 0.008 | 0.06 | 0.125 | – | – | – | – | –
2 | CO[C@H]1/C=C/O[C@@]2(C)Oc3c(C)c(O)c4c(c3C2=O)C2=NC3(CCN(CC(C)C)CC3)NC2=C(NC(=O)/C(C)=C\C=C\[C@H](C)[C@H](O)[C@@H](C)[C@@H](O)[C@@H](C)[C@H](OC(=O)CC(=O)N2CCC(N(C)c3ccccc3)CC2)[C@@H]1C)C4=O [Compound 14] | 0.5 (≈ 0.47 µM) | 0.06 | 0.125 | 0.002 | 0.03 | 0.06 | – | – | – | – | –
3 | CO[C@H]1/C=C/O[C@@]2(C)Oc3c(C)c(O)c4c(c3C2=O)C2=NC3(CCN(CC(C)C)CC3)NC2=C(NC(=O)/C(C)=C\C=C\[C@H](C)[C@H](O)[C@@H](C)[C@@H](O)[C@@H](C)[C@H](OC(=O)C(C)C(=O)N2CCC(N(C)c3ccccc3)CC2)[C@@H]1C)C4=O (some centres unmarked) [Compound 40] | 0.5 (≈ 0.464 µM) | 0.03 | 0.125 | 0.001 | 0.03 | 0.06 | – | – | – | – | –
4 | CO[C@H]1/C=C/O[C@@]2(C)Oc3c(C)c(O)c4c(c3C2=O)C2=NC3(CCN(CC(C)C)CC3)NC2=C(NC(=O)/C(C)=C\C=C\[C@H](C)[C@H](O)[C@@H](C)[C@@H](O)[C@@H](C)[C@H](OC(=O)CC(=O)N2CCC(Nc3ccccc3)CC2)[C@@H]1C)C4=O [Compound 44] | 0.25 (≈ 0.238 µM) | – | – | – | – | – | 0.008 | 0.25 | 0.004 | 0.03 | 0.06
5 | CO[C@H]1/C=C/O[C@@]2(C)Oc3c(C)c(O)c4c(c3C2=O)C2=NC3(CCN(CC(C)C)CC3)NC2=C(NC(=O)/C(C)=C\C=C\[C@H](C)[C@H](O)[C@@H](C)[C@@H](O)[C@@H](C)[C@H](OC(=O)CC(=O)N2CCC(n3nnc5cc(C(F)(F)F)ccc53)CC2)[C@@H]1C)C4=O [Compound 49] | 1 (≈ 0.875 µM) | 0.25 | 0.25 | 0.008 | 0.03 | 0.06 | – | – | – | – | –
6 | CO[C@H]1/C=C/O[C@@]2(C)Oc3c(C)c(O)c4c(c3C2=O)C2=NC3(CCN(CC(C)C)CC3)NC2=C(NC(=O)/C(C)=C\C=C\[C@H](C)[C@H](O)[C@@H](C)[C@@H](O)[C@@H](C)[C@H](OC(=O)CC(=O)N2CCC(Cc3ccccc3)CC2)[C@@H]1C)C4=O [Compound 50] | 2 (≈ 1.91 µM) | – | – | – | – | – | 0.06 | 0.125 | 0.004 | 0.03 | 0.06
7 | CO[C@H]1/C=C/O[C@@]2(C)Oc3c(C)c(O)c4c(c3C2=O)C2=NC3(CCN(CC(C)C)CC3)NC2=C(NC(=O)/C(C)=C\C=C\[C@H](C)[C@H](O)[C@@H](C)[C@@H](O)[C@@H](C)[C@H](OC(=O)CC(=O)N2CCC3(CC2)Cc2ccccc2C3)[C@@H]1C)C4=O [Compound 52] | 0.5 (≈ 0.472 µM) | 0.016 | 0.125 | 0.002 | 0.03 | 0.03 | – | – | – | – | –
8 | CO[C@H]1/C=C/O[C@@]2(C)Oc3c(C)c(O)c4c(c3C2=O)C2=NC3(CCN(CC(C)C)CC3)NC2=C(NC(=O)/C(C)=C\C=C\[C@H](C)[C@H](O)[C@@H](C)[C@@H](O)[C@@H](C)[C@H](OC(=O)CC(=O)N2CCC(O)(Cc3ccccc3)CC2)[C@@H]1C)C4=O [Compound 54] | 0.125 (≈ 0.117 µM) | 0.008 | 0.25 | 0.008 | – | 0.06 | – | – | – | 0.125 | –
9 | CO[C@H]1/C=C/O[C@@]2(C)Oc3c(C)c(O)c4c(c3C2=O)C2=NC3(CCN(CC(C)C)CC3)NC2=C(NC(=O)/C(C)=C\C=C\[C@H](C)[C@H](O)[C@@H](C)[C@@H](O)[C@@H](C)[C@H](OC(=O)CC(=O)N2CCC(C(=O)c3ccccc3)CC2)[C@@H]1C)C4=O [Compound 55] | 0.5 (≈ 0.471 µM) | 0.016 | 0.25 | 0.016 | 0.06 | 1 | – | – | – | – | –
10 | CO[C@H]1/C=C/O[C@@]2(C)Oc3c(C)c(O)c4c(c3C2=O)C2=NC3(CCN(CC(C)C)CC3)NC2=C(NC(=O)/C(C)=C\C=C\[C@H](C)[C@H](O)[C@@H](C)[C@@H](O)[C@@H](C)[C@H](OC(=O)CC(=O)N2CCC(CCc3ccccc3)CC2)[C@@H]1C)C4=O [Compound 56] | 2 (≈ 1.88 µM) | 0.03 | 0.25 | 0.03 | 0.06 | 0.5 | – | – | – | – | –
11 | CO[C@H]1/C=C/O[C@@]2(C)Oc3c(C)c(O)c4c(c3C2=O)C2=NC3(CCN(CC(C)C)CC3)NC2=C(NC(=O)/C(C)=C\C=C\[C@H](C)[C@H](O)[C@@H](C)[C@@H](O)[C@@H](C)[C@H](OC(=O)CC(=O)N2CCC(Oc3ccccc3)CC2)[C@@H]1C)C4=O [Compound 57] | 0.5 (≈ 0.476 µM) | – | – | – | – | – | 0.03 | 0.125 | 0.008 | 0.03 | 0.125
12 | CO[C@H]1/C=C/O[C@@]2(C)Oc3c(C)c(O)c4c(c3C2=O)C2=NC3(CCN(CC(C)C)CC3)NC2=C(NC(=O)/C(C)=C\C=C\[C@H](C)[C@H](O)[C@@H](C)[C@@H](O)[C@@H](C)[C@H](OC(=O)CC(=O)N2CCCN(c3ccc(F)cc3)CC2)[C@@H]1C)C4=O [Compound 66] | 0.125 (≈ 0.117 µM) | 0.016 | – | 0.016 | 0.06 | 0.125 | – | 0.125 | – | – | –
13 | CO[C@H]1/C=C/O[C@@]2(C)Oc3c(C)c(O)c4c(c3C2=O)C2=NC3(CCN(CC(C)C)CC3)NC2=C(NC(=O)/C(C)=C\C=C\[C@H](C)[C@H](O)[C@@H](C)[C@@H](O)[C@@H](C)[C@H](OC(=O)CC(=O)N2CCC(OC3CCC(C)CC3)CC2)[C@@H]1C)C4=O (some centres unmarked) [Compound 67] | 0.25 (≈ 0.234 µM) | 0.008 | 0.125 | 0.008 | 0.125 | 0.25 | – | – | – | – | –
14 | CO[C@H]1/C=C/O[C@@]2(C)Oc3c(C)c(O)c4c(c3C2=O)C2=NC3(CCN(CC(C)C)CC3)NC2=C(NC(=O)/C(C)=C\C=C\[C@H](C)[C@H](O)[C@@H](C)[C@@H](O)[C@@H](C)[C@H](OC(=O)CC(=O)N2CCC3C(CCCN3Cc3ccccc3)C2)[C@@H]1C)C4=O (some centres unmarked) [Compound 68] | 0.5 (≈ 0.453 µM) | 0.03 | 0.25 | 0.001 | 0.125 | 0.03 | – | – | – | – | –
15 | CCC(C(=O)O[C@H]1[C@H](C)[C@H](O)[C@H](C)[C@@H](O)[C@@H](C)/C=C/C=C(/C)C(=O)NC2=C3NC4(CCN(CC(C)C)CC4)N=C3c3c(c(O)c(C)c4c3C(=O)[C@@](C)(O/C=C/[C@H](OC)[C@H]1C)O4)C2=O)C(=O)N1CCCN(c2ccc(F)cc2)CC1 (some centres unmarked) [Compound 79] | 0.5 (≈ 0.456 µM) | 0.03 | 0.125 | 0.004 | 0.03 | 0.125 | – | – | – | – | –
16 | CO[C@H]1/C=C/O[C@@]2(C)Oc3c(C)c(O)c4c(c3C2=O)C2=NC3(CCN(CC(C)C)CC3)NC2=C(NC(=O)/C(C)=C\C=C\[C@H](C)[C@H](O)[C@@H](C)[C@@H](O)[C@@H](C)[C@H](OC(=O)CC(=O)N2CCN(CCN3CCOCC3)CC2)[C@@H]1C)C4=O [Compound 115] | 0.06 (≈ 0.056 µM) | ≤ 0.002 | 0.5 | – | – | – | – | – | – | – | –
17 | CO[C@H]1/C=C/O[C@@]2(C)Oc3c(C)c(O)c4c(c3C2=O)C2=NC3(CCN(CC(C)C)CC3)NC2=C(NC(=O)/C(C)=C\C=C\[C@H](C)[C@H](O)[C@@H](C)[C@@H](O)[C@@H](C)[C@H](OC(=O)CC(=O)N2CCCN(c3ccncc3)CC2)[C@@H]1C)C4=O [Compound 121] | 0.125 (≈ 0.119 µM) | ≤ 0.002 | 0.25 | – | – | 2 | – | – | 0.125 | – | –
